Laboratory results from article PMC8330100, “Similarities and differences in the localization, trafficking, and function of P-glycoprotein in MDR1-EGFP-transduced rat versus human brain capillary endothelial cell lines” (Fluids and Barriers of the CNS, 2021).

Assays:
[1] = molecular target: T1, Pgp in RBE4-MDR1-EGFP cells (Homo sapiens, UniProt P08183); test: Rhodamine 123 uptake/accumulation assay, RBE4-MDR1-EGFP cells; type: cell-based, rat; settings: RBE4-MDR1-EGFP in the presence of doxycycline; tariquidar 0.5 µM
T1 construct: expressed in transfected cells; host or cells: RBE4 (rat BCEC line), lentiviral transduction, doxycycline-inducible
Method: Piet Borst (The Netherlands Cancer Institute, Amsterdam, The Netherlands) as template. The linker sequence in the vector fusing EGFP and MDR1 consists of 36 bp ([…]). hCMEC/D3-WT, RBE4-WT, and hCMEC/D3-MDR1-EGFP cell lines were cultivated as previously described. The same culture conditions were used for the newly prepared RBE4-MDR1-EGFP cell line. As described previously, hydrocortisone (1.4 µM) was added to the culture medium to enhance the expression and functionality of Pgp and transendothelial resistance. All endothelial cell lines were grown on rat-tail collagen I (60 µg/mL, Gibco) coated 100 mm cultures dishes or permeable membrane supports at 37 °C and 5% CO2. Pgp-EGFP protein expression in MDR1-EGFP transduced cells was induced by cell cultivation in medium containing […] doxycycline. Expression of Pgp-EGFP was regularly verified by observing the cells with an inverted fluorescence microscope. Doxycycline supplementation of the medium was maintained during the whole culturing period of Pgp-EGFP expressing cells. For experiments, hCMEC/D3 and RBE4 cells were seeded in a density of 50,000 cells/cm^2. Immortalized MDR1 transfected porcine kidney LLC-PK1 (LLC-MDR1) cells, which were used as a reference standard for vectorial transport experiments, were kindly provided by Prof. Piet Borst. […]

Pgp in primary rBCECs = test: Rhodamine 123 uptake/accumulation assay, primary rBCECs; type: cell-based, rat
Source text: The RBE4 and hCMEC/D3 cell lines used here are immortalized, which has the advantage that these cells are stable for several passages and may yield a large number of endothelial cells with the same genetic and phenotypical characteristics. The immortalization status, however, causes several alterations as compared to the native original cell type, including low junctional tightness of cell monolayers and reduced expression of efflux transporters such as Pgp. Therefore, for comparison with the MDR1-EGFP transduced rat RBE4 cells, experiments were also performed with primary cultured rat brain capillary endothelial cells (rBCECs). As described by us previously, rBCECs were prepared following a protocol by Régina et al. and Perrière et al. from 2 to 3 weeks old Wistar rats (obtained from Charles River; Sulzfeld, Germany). All animals were treated according to protocols evaluated and approved by the ethical committee of our university. In short, meninges were removed from cerebral cortices in phosphate-buffered saline (PBS) with 1% penicillin (100 U/mL)/streptomycin (100 μg/mL) (Biochrom AG) on ice. Subsequently, cortices were mechanically dissociated with scalpels. […]
The functionality of Pgp in RBE4-WT, RBE4-MDR1-EGFP, hCMEC/D3-WT, hCMEC/D3-MDR1-EGFP cells, and primary rBCECs was analyzed by measuring the uptake of the fluorescent Pgp substrate Rho123 (Sigma-Aldrich). […] Intracellular Rho123 concentration was determined by cell lysis in standard lysis buffer (25 mM Tris, 50 mM NaCl, 0.5% (w/v) sodium deoxycholate, 0.5% (w/v) Triton X-100) and measurement of fluorescence intensity with the FLUOstar OPTIMA (ex.: 485 nm, em.: 520 nm; BMG Labtech). Protein concentrations were determined using a BCA assay kit (Thermo Fisher Scientific). Rho123 uptake was obtained for each condition in triplicates and calculated as absolute fluorescence per mg protein. Additionally, Pgp functionality was expressed as multidrug resistance activity factor (MAF) as described by Huber et al.. […]

[2] = molecular target: Pgp in LLC-MDR1 monolayers (Homo sapiens, UniProt P08183); settings: Rho123 2 µM

## COC(=O)c1ccccc1-c1c2ccc(=N)cc-2oc2cc(N)ccc12 [Rho123, rhodamine 123]
[1]
  increase of Rho123 efflux (accumulation in absence vs presence of tariquidar): ~ 7 fold
Pgp in primary rBCECs; Rho123 5 µM, 2 h, without tariquidar
  intracellular Rho123 accumulation: 56,482 ± 2456 absolute fluorescence per mg p
Pgp in primary rBCECs; with vs without tariquidar 0.5 µM
  multidrug resistance activity factor (MAF) from intracellular Rho123 accumulation: 61.2% ± 2.7
[2]
  vectorial transport in CETA: significant vectorial transport was observed
